Results on 16 compounds are retold here after ChEMBL document CHEMBL1201862, “PubChem BioAssay data set” (2004).

The test system of one experiment is Vero. As to the kind of experiment: host cell cytotoxicity of antiviral hits, dose response, cytotoxicity control for West Nile virus antiviral project, secondary assay (AID 1650). It counts as functional. To be noted: Chlorocebus sabaeus.
The nature of experiment [1]: growth suppression of PTEN-null colon cells, dose response, cell-based, HCT116 PTEN knockout (AID 1047).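 Note: HCT116 colon tumor cells with PTEN knocked out; cells exposed to compound for 60 hours before readout; potency for loss of cell viability measured by luminescence.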 It counts as functional.
Experiment [2] is described as follows: growth suppression of beta-catenin-knockout colon cells, dose response, cell-based, HCT116, human colon tumor (AID 1045).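 Note: HCT116 colon tumor cells with beta catenin knocked out; cells exposed to compound for 60 hours.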 It is filed as functional.
The target of experiment [3] is T1, Epstein-Barr nuclear antigen 1 (Epstein-Barr virus (strain B95-8) (HHV-4) (Human herpesvirus 4), UniProt P03211).
T1 sequence (P03211 whole entry): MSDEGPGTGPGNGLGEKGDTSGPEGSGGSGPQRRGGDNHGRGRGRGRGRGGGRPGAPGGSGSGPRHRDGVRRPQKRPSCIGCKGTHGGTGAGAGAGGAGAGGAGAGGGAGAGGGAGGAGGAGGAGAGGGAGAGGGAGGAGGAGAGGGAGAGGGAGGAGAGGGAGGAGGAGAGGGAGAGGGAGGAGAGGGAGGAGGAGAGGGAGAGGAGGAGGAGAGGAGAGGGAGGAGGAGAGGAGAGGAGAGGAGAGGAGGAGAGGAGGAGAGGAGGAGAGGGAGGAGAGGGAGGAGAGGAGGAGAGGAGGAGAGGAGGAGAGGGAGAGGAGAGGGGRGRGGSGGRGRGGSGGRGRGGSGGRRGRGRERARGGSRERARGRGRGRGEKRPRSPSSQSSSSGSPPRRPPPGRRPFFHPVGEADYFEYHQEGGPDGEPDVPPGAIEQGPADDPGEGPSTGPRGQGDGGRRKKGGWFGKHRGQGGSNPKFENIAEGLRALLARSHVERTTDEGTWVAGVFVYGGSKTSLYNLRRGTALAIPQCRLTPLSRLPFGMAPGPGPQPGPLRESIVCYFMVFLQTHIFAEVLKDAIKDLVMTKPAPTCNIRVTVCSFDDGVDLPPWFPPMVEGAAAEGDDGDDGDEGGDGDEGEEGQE
The experiment in a line: EBNA-1 inhibitors, dose response, biochemical, fluorescence polarization, 1536-well (AID 2381).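 Note: fluorescence polarization of a Cy5 DNA probe bound by EBNA-1 protein.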 The arrangement: species or system human gammaherpesvirus 4. On the technique in general: Polarisation of emitted light reports the rotation of a fluorescent probe.

Experiment [4] addresses T2, Lytic switch protein BZLF1 (Epstein-Barr virus (strain B95-8) (HHV-4) (Human herpesvirus 4), UniProt P03206).
T2 sequence (P03206 whole entry): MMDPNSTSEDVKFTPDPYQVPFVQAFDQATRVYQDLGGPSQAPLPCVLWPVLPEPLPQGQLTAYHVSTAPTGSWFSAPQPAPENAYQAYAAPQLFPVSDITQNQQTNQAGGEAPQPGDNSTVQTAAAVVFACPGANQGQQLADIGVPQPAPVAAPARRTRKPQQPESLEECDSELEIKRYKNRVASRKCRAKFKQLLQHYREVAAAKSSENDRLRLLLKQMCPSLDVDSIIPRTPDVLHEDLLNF
The experiment in a line: EBV ZTA inhibitors, dose response, counter-screen for EBNA-1 inhibitor project, biochemical, fluorescence polarization, Epstein-Barr virus, 1536-well (AID 2377).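 Note: fluorescence polarization of Cy5-labelled ZRE DNA probe bound by purified Zta.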 Also on record: species or system human gammaherpesvirus 4. Background: Counterscreens check selectivity or assay interference.

The target of experiment [5] is T3, Tyrosine-protein phosphatase non-receptor type 7 (Homo sapiens, UniProt P35236).
T3 sequence (P35236 whole entry): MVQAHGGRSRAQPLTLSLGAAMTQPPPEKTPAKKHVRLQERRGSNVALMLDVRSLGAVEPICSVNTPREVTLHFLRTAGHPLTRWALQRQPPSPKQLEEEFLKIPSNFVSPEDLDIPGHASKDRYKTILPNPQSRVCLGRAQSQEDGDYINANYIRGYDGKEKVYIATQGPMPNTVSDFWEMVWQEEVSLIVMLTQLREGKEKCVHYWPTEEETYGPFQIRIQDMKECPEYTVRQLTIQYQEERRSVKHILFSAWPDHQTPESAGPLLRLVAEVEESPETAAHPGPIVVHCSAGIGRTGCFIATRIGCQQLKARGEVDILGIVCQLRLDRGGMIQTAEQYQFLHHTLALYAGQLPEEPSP
The experiment in a line: inhibitors of human HePTP phosphatase, […], biochemical, absorbance, leukemia target (AID 521). It counts as functional.

Experiment [6] in a line: cytotoxicity in HEK-293T cells, dose response, cytotoxicity control for TCR NF-kB inhibitor project, luminescence, T-cell screen hits (AID 489026).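 Note: cells exposed to compound about 14 hours before the viability readout.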 It counts as functional, cell-based.
In experiment [7] the target is Luciferin 4-monooxygenase (Photinus pyralis, UniProt P08659). As to the kind of experiment: Counter Screen for Luciferase-based Assay Positives. [Related pubchem assays: 620, 618, 411 ].
Another experiment deals with HT-1080. The experiment in a line: cytotoxicity in HT1080 fibrosarcoma cells, cell-based, fluorescence readout (AID 620). It counts as functional. The following applies: Homo sapiens.
The next experiment concerns the target Nonstructural protein 1 (Influenza A virus, UniProt Q194T2). It is filed as functional, Influenza A virus (A/California/07/2009(H1N1)).
Experiment [8] addresses T4, Microphthalmia-associated transcription factor (Homo sapiens, UniProt O75030).
T4 sequence (O75030 whole entry): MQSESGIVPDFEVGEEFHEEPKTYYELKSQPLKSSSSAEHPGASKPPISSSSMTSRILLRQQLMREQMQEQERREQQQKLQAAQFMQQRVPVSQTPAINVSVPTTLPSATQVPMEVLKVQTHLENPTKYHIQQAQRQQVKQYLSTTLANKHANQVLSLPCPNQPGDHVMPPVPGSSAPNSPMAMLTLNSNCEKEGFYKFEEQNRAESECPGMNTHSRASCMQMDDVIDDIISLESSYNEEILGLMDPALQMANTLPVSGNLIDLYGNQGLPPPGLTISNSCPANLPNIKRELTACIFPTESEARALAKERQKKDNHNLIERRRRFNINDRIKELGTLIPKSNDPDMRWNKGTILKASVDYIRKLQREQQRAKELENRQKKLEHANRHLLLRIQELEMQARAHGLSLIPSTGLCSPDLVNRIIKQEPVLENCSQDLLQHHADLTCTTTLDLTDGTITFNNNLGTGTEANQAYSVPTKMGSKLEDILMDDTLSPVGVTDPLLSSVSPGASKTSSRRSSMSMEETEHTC
The experiment in a line: TRPM1 promoter luciferase signal decrease, dose response, MITF inhibitor project, cell-based, SK-MEL-5, cherry-picked, set 3 (AID 493073).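 Note: SK-MEL-5 melanoma cells with luciferase driven by the MITF target TRPM1 promoter.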 It is filed as functional.

For experiment [9], the target named is T5, Ubiquitin-conjugating enzyme E2 N (Homo sapiens, UniProt P61088).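 Note: Dose-response confirmation in a TR-FRET assay detecting UBC13-driven polyubiquitin chain formation, inhibition measured.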
T5 sequence (P61088 whole entry): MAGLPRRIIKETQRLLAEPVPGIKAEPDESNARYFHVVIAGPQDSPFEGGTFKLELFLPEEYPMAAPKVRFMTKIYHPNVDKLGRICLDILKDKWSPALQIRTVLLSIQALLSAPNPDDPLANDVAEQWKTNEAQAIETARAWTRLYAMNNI
It counts as functional.

The target in the next experiment is T6, Estrogen receptor (Homo sapiens, UniProt P03372).
T6 sequence (P03372 whole entry): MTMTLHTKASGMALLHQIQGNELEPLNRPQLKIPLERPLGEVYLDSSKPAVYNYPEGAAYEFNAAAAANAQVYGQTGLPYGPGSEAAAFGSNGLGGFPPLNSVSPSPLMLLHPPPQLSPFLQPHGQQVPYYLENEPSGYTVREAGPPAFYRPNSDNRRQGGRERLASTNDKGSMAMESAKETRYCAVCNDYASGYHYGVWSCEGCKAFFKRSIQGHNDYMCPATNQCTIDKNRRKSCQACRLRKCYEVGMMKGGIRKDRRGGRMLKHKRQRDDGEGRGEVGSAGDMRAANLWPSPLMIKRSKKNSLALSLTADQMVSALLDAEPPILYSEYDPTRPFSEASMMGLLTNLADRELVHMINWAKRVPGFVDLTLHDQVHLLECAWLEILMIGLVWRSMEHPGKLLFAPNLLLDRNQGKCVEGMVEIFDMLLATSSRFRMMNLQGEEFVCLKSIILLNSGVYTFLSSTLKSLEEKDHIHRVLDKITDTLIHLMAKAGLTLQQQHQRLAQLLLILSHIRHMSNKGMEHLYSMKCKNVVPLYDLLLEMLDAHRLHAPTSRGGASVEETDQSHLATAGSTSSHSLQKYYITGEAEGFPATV

The target in another experiment is Estrogen receptor beta (Homo sapiens, UniProt Q92731).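 Note: recombinant ER-beta bound to coactivator SRC1 peptide in presence of estradiol agonist; inhibitors block coactivator peptide binding and lower the FRET signal.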
For experiment [10], the target named is T7, Aryl hydrocarbon receptor (Homo sapiens, UniProt P35869).
T7 sequence (P35869 whole entry): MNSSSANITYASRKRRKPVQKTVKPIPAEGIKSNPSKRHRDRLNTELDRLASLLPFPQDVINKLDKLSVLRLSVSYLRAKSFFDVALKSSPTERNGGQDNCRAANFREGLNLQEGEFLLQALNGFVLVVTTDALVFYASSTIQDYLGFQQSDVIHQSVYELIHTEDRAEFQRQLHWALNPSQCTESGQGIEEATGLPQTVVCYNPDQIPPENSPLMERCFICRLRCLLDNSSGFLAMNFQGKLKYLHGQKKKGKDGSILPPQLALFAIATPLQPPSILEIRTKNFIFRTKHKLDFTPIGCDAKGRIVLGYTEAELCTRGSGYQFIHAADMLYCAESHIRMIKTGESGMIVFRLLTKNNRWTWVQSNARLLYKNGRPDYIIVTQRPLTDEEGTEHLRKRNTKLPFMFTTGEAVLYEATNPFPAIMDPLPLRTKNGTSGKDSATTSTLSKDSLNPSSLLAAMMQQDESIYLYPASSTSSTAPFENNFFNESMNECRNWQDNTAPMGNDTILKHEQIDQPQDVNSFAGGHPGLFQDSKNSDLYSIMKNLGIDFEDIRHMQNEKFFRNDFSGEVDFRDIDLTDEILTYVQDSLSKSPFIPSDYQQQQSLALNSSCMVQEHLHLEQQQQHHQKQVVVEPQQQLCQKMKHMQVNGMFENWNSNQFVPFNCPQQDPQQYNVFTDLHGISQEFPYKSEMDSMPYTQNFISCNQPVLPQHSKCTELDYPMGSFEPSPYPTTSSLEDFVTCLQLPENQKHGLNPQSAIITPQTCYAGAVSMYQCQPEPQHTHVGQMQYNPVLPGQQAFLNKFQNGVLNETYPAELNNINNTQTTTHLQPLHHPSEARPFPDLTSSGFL
The experiment in a line: Luminescence-based cell-based high throughput dose response assay for activators of the Aryl Hydrocarbon Receptor (AHR). [Related pubchem assays: 2796 (Primary screen (AHR activators in singlicate)), 2845 (Confirmation screen (AHR activators in triplicate)), 434939 (Counterscreen (PXR activators in triplicate)), 2804 (Summary (AHR activators))]. It counts as ADME.

Activity calls are given as the source filed them.

Luciferin 4-monooxygenase, sequence (P08659 whole entry): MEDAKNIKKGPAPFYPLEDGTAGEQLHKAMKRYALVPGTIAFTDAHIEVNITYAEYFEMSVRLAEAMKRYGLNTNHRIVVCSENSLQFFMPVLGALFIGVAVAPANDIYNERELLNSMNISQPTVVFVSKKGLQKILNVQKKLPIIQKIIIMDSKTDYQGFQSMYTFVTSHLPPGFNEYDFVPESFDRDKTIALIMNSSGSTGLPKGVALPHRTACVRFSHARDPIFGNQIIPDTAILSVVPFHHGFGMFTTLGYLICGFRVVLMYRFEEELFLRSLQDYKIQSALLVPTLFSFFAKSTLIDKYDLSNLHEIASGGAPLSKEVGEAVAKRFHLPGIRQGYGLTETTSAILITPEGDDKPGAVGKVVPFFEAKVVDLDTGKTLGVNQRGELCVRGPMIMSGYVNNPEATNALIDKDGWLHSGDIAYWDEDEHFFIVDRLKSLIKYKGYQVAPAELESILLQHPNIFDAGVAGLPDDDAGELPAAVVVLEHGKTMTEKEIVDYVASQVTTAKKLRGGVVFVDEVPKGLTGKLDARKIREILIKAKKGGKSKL
Nonstructural protein 1, sequence (Q194T2 whole entry): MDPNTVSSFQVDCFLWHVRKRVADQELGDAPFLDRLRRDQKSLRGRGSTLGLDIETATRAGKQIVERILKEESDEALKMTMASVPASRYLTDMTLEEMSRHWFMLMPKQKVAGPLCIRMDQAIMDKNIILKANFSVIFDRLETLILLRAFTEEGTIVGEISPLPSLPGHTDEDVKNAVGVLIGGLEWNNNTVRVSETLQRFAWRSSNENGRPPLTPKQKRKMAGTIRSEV
Estrogen receptor beta, sequence (Q92731 whole entry): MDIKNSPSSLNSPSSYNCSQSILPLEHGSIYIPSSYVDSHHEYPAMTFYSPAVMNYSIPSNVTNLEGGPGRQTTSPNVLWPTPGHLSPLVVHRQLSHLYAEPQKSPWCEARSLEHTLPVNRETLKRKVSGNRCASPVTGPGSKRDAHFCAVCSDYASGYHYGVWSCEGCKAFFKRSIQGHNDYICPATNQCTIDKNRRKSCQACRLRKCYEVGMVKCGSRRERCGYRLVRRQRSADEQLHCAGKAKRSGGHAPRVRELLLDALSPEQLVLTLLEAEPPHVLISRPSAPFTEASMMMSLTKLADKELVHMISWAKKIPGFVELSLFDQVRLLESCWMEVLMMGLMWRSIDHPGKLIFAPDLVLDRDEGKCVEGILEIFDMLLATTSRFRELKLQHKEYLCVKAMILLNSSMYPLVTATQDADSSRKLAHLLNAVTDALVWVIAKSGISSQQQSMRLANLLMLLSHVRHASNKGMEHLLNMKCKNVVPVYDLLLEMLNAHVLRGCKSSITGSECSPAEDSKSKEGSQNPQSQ

For the compound `CCCCn1c(=N)n(CC(O)COc2cccc(C)c2)c2ccccc21` (stereo unspecified), the cytotoxic concentration (CC50) (usually the concentration at which the toxic effect on the cells reaches its halfway point) in the experiment on Vero is 40.2 µM (active). The EC50 (in general, the concentration at which the effect is half-maximal) in [1] is 5.56 µM (active); in experiment [2] it was 5.24 µM (active).
Consider `O=C(CNC(=O)c1ccc(-c2ccccc2)cc1)OCc1c(F)cccc1Cl`, for which the half-maximal inhibitory concentration (IC50) – broadly, the point on the concentration scale where inhibition reaches its midpoint – in [3] is 11.7 µM (not active); in experiment [4] it was > 111 µM (not active).
As for `O=c1[nH]c(CN2CCN(S(=O)(=O)c3ccc4ccccc4c3)CC2)nc2ccccc12`, the IC50 in [3] is 5.56 µM (active); in [4] it was > 111 µM (not active).
As for `CN(C)c1ccc(-c2nn3c(-c4ccccc4Cl)nnc3s2)cc1`, the values for the half-inhibitory concentration (IC50) in experiment [5] and in [6] were > 100 µM (not active) and > 80 µM (inactive), respectively.
For the compound `CN(C)c1ccc(NC(=S)c2ccccn2)cc1`, the EC50 in experiment [7] is 0.52 µM (active); in experiment [1], 92.2 µM (active); in the experiment with HT-1080, > 50 µM (not active); in [2], 136 µM (active). Moreover, the IC50 on Nonstructural protein 1 is 28.3 µM (active). Also, the AC50 (usually the concentration giving half of the maximal activity seen) in experiment [8] was 2.84 µM (active).
On to `COc1ccc(-n2ncc3c(NC(C)C)ncnc32)cc1`, for which the values for the EC50 (in experiment [7]; in the experiment with HT-1080) were < 0.2 µM (active) and > 50 µM (not active), respectively.
`CC1CC(C)CN(CCCNC(=O)C2CCN(c3ncnc4c3sc3cccc(F)c34)CC2)C1` (stereo unspecified): the cytotoxic concentration (CC50) with Vero was > 100 µM (active). For the same compound, the IC50 in experiment [9] is > 20 µM (inactive).
`Cn1c(=O)[nH]c(=O)c2c1nc1n2CCCN1CCc1ccccc1`: the IC50 on Estrogen receptor and against Estrogen receptor beta was > 50 µM (not active) each time.
Consider `O=C(NC(=S)Nc1ccc(F)c(Cl)c1)C1CC1`, for which the EC50 in experiment [10] is 0.861 µM (active).
In the case of `CCc1ccc(NC(=O)C(=O)NCCN2CCN(Cc3ccc([N+](=O)[O-])cc3)CC2)cc1`, the cytotoxic concentration (CC50) in the experiment on Vero is 37.7 µM (active).
In the case of `CCN=c1ccc(Br)cc(C(=O)/C=C/c2ccccc2Cl)c1O`, the IC50 on Estrogen receptor was 3.11 µM (active).
As to `N#C/C(=C/c1ccccc1)c1nn(CCO)c(N)c1C#N`, the concentration giving a half-maximal response (EC50) in experiment [10] was 6.55 µM (active).
As to `COc1ccc(Cl)cc1NC(=O)CN1CCN(S(=O)(=O)c2ccc(F)cc2)CC1`, the IC50 is given as 16.4 µM (not active) in experiment [3] and > 111 µM (not active) in [4].
For the compound `C/C(=N\NC(=O)c1c(Br)cnn1C)c1ccc(NC(=O)c2ccc(F)cc2)cc1`, the half-inhibitory concentration (IC50) in [3] is 3.62 µM (active); in experiment [4] it was > 111 µM (not active).
On to `C/C(=N\NC(=O)c1cccnc1)c1ccc(-n2ccnc2)cc1`, for which the EC50 in experiment [10] is 5.46 µM (active).
For the compound `CC(=O)OCC1=C(C(=O)O)N2C(=O)[C@@H](NC(=O)Cc3cccs3)[C@H]2SC1` [CEPHALOTHIN SODIUM], the IC50 in [5] is 0.92 µM (active).
